The values that follow come from patent EP0216105A1, “Diazaphosphorines, process for their preparation and their use as pesticide” (priority 1985, dated 1987).

The structures appear in SMILES notation.

The experiment relates to Caenorhabditis elegans. As to the kind of experiment: In vitro nematode test. As to conditions: concentration at which reproduction is prevented, 7 days at 22°C; for minimal effective concentration: Caenorhabditis elegans, 168 h, read-out: Dosis effectiva. The protocol:
10-^4 g Wirkstoff wurden in 1 ml Wasser oder 0,1 ml Dimethylsulfoxid (DMSO) gelöst. Diese Lösung wurde auf eine Replica-Platte gegeben. Dazu wurden 2 ml einer E-coli-Suspension gegeben, in der man 10-20 weibliche Tiere oder Larven von Caenorhabditis elegans in 0,5 ml M9 Pufferlösung gegeben hat. Die E-coli-Suspension wurde hergestellt indem man 300 ml einer Ubernachthalter eines Uracil-bedürftigen E-coli-Stammes mit 1,8 1 steriler M 9 Pufferlösung versetzte.
Der Versuchsansatz wurde 7 Tage bei 22°C inkubiert und danach ausgewertet. Es wurde bewertet inwieweit der Wirkstoff die Vermehrung beeinträchtigt und die Konzentration angegeben bei der die Vermehrung verhindert wird.

With `CN1C(=O)C(C(=O)Nc2ccc([N+](=O)[O-])cc2)C(=O)N(C)P1(=O)Oc1ccc(Cl)cc1` (centres unmarked) [Beispiel 4], the minimal effective concentration was 10 µg/mL.
Molecule `CN1C(=O)C(C(=O)Nc2ccc(S(=O)(=O)C(F)(F)F)cc2)C(=O)N(C)P1(=O)Oc1ccc(Cl)cc1` (centres unmarked) [Beispiel 5] registered a Dosis effectiva of 10 mg/L.
Turning to `CN1C(=O)C(C(=O)Nc2ccccc2SC(F)(F)F)C(=O)N(C)P1(=O)Oc1ccccc1` (centres unmarked) [Beispiel 11], the minimal effective concentration was determined as 100 µg/mL.
Regarding `CN1C(=O)C(C(=O)Nc2ccc(S(=O)(=O)C(F)(F)F)cc2)C(=O)N(C)P1(=O)Oc1ccccc1` (centres unmarked) [Beispiel 13], the minimal effective concentration turned out to be 10 µg/mL.
The same measure, in the same setting: the same measure for `CN1C(=O)C(C(=O)Nc2ccc([N+](=O)[O-])cc2)C(=O)N(C)P1(=O)Oc1ccc([N+](=O)[O-])cc1` (centres unmarked) [Beispiel 18]: 100 µg/mL; for `COc1ccc(NC(=O)C2C(=O)N(C)P(=O)(Oc3ccc(OC)cc3)N(C)C2=O)cc1` (centres unmarked) [Beispiel 19]: 100 µg/mL.
The same measure, in the same setting: the same measure for `COc1ccc(NC(=O)C2C(=O)N(C)P(=O)(Oc3ccc(C)cc3)N(C)C2=O)cc1` (centres unmarked) [Beispiel 20]: 10 µg/mL.
`CN1C(=O)C(C(=O)Nc2ccc(SC(F)(F)F)cc2)C(=O)N(C)P1(=O)Oc1cccc(Cl)c1` (centres unmarked) [Beispiel 37]: the minimal effective concentration is 10 µg/mL.
Take `CN1C(=O)C(C(=O)Nc2ccc(OC(F)(F)F)cc2)C(=O)N(C)P1(=O)Oc1cccc(Cl)c1` (centres unmarked) [Beispiel 38]: the minimal effective concentration worked out at 10 µg/mL.
Take `CC(C)N1C(=O)C(C(=O)Nc2ccc(SC(F)(F)F)cc2)C(=O)N(C)P1(=O)Oc1cccc(Cl)c1` (centres unmarked) [Beispiel 42]: the minimal effective concentration was determined as 10 µg/mL.
In the case of `CN1C(=O)C(C(=O)Nc2ccc(SC(F)(F)F)cc2)C(=O)N(c2ccccc2)P1(=O)Oc1ccccc1` (centres unmarked) [Beispiel 44], the minimal effective concentration is 10 µg/mL.
In the case of `CCN1C(=O)C(C(=O)Nc2ccc(Oc3ccc(C(F)(F)F)cc3)cc2)C(=O)N(C)P1(=O)Oc1cccc(Cl)c1` (centres unmarked) [Beispiel 46], the minimal effective concentration is 10 µg/mL.
In the case of `CC(C)N1C(=O)C(C(=O)Nc2ccc(C(F)(F)F)cc2C(F)(F)F)C(=O)N(Cc2ccccc2)P1(=O)Oc1cccc(Cl)c1` (centres unmarked) [Beispiel 51], the minimal effective concentration is 100 µg/mL.
`Cc1cccc(OP2(=O)N(C)C(=O)C(C(=O)Nc3ccc(SC(F)(F)F)cc3)C(=O)N2C(C)C)c1` (centres unmarked) [Beispiel 54]: the minimal effective concentration was determined as 10 µg/mL.
Take `CCN1C(=O)C(C(=O)Nc2ccc(C(F)(F)F)c(Cl)c2)C(=O)N(C)P1(=O)Oc1cccc(Cl)c1` (centres unmarked) [Beispiel 55]: the minimal effective concentration turned out to be 10 µg/mL.
For the molecule `CCN1C(=O)C(C(=O)Nc2ccc(C(F)(F)F)cc2C(F)(F)F)C(=O)N(C)P1(=O)Oc1cccc(Cl)c1` (centres unmarked) [Beispiel 56], the minimal effective concentration was 10 µg/mL.
Same read-out and setting: for `CCN1C(=O)C(C(=O)Nc2ccc(Cl)c(C(F)(F)F)c2)C(=O)N(C)P1(=O)Oc1cccc(Cl)c1` (centres unmarked) [Beispiel 57] the value was 10 µg/mL; for `CCN1C(=O)C(C(=O)Nc2ccc(SC(F)(F)F)cc2)C(=O)N(C)P1(=O)Oc1cccc(Cl)c1` (centres unmarked) [Beispiel 58], 10 µg/mL.
As to `CCN1C(=O)C(C(=O)Nc2ccc(OC(F)(F)F)cc2)C(=O)N(C)P1(=O)Oc1cccc(Cl)c1` (centres unmarked) [Beispiel 59], the minimal effective concentration is 10 µg/mL.
Turning to `CCN1C(=O)C(C(=O)Nc2ccc(C(F)(F)F)c(C(F)(F)F)c2)C(=O)N(C)P1(=O)Oc1cccc(Cl)c1` (centres unmarked) [Beispiel 61], the minimal effective concentration was found to be 10 µg/mL.
Consider `CC(C)N1C(=O)C(C(=S)Nc2ccccc2)C(=O)N(C)P1(=O)Oc1cccc(Cl)c1` (centres unmarked) [Beispiel 62], for which the minimal effective concentration is 100 µg/mL.
For the molecule `CC(C)N1C(=O)C(C(=O)Nc2ccc(SC(F)(F)F)c(Cl)c2)C(=O)N(C)P1(=O)Oc1cccc(Cl)c1` (centres unmarked) [Beispiel 64], the minimal effective concentration was determined as 10 µg/mL.
In the case of `Cc1cccc(OP2(=O)N(C)C(=O)C(C(=O)Nc3ccc(Cl)c(C(F)(F)F)c3)C(=O)N2C(C)C)c1` (centres unmarked) [Beispiel 65], the minimal effective concentration was found to be 10 µg/mL.
